According to article PMC9728226, “Suppressive Effects of a Truncated Inhibitor K562 Protein-Derived Peptide on Two Proinflammatory Cytokines, IL-17 and TNF-α” (Journal of Microbiology and Biotechnology, 2020):
Peptide text beside a SMILES is read from it.

What was measured:
[1] = system: mTNF-α secretion by J774A.1 cells; assay: mTNF-α secretion by LPS-stimulated J774A.1 cells, ELISA; format: cell-based, mouse; details: 24 h, mean of n = 3; for inhibition of mTNF-α: J774A.1 cells, 100 ng/ml LPS, Fig. 3D
Method: The murine monocyte/macrophage cell line J774A.1 was obtained from the American Type Culture Collection (ATCC, USA), grown in Dulbecco’s modified Eagle’s medium (Gibco Laboratories, USA), and cultured at 37°C in humidified 5% CO2. The culture medium was supplemented with 10% fetal bovine serum and 2 mM glutamine. The cells were seeded into 24-well culture plates at a density of 1 × 10^5/ml and allowed to adhere overnight. Thereafter, the medium was replaced with fresh medium. The cells were pre-treated with DMS or a peptide (P1, P2, P3, P4, or P4S) and then stimulated with 100 ng/ml of lipopolysaccharide (LPS). Supernatants were collected after 24 h and stored at -20°C. Concentrations of mouse TNF-α (mTNF-α) were measured using ELISA (Mouse TNF-α DuoSet ELISA Kit; R&D Systems Europe, UK) according to the manufacturer’s instructions. All tests were repeated three times independently, and the results are expressed as means ± SDs.

[2] = system: Th17 cell differentiation (mouse IL-17); format: cell-based; details: 1.0 μg/ml; second experiment (Fig. 3B), control 0.1% DMSO; IL-17 ELISA; mean of n = 3
Method: Naïve CD4^+ T cells were isolated from the spleen of wild-type Balb/c mice via magnetic-activated cell sorting using a CD4^+ T Cell Isolation Kit (Miltenyi Biotec, Germany), in accordance with the manufacturer’s instructions. The RPMI medium for stimulating Th17 cell differentiation included 10 μg/ml anti-CD3 (eBioscience, USA), 1.5 μg/ml anti-CD28 (eBioscience), 5 ng/ml transforming growth factor-β (R&D Systems, USA), and 20 ng/ml IL-6 (BioLegend, USA). After cells had been cultured in this conditioned medium for 2 days at 37°C, 100 μl of the supernatant was analyzed for mouse IL-17 (mIL-17) using an IL-17-specific enzyme-linked immunosorbent assay (ELISA). All tests were repeated three times independently, and the means and standard deviations (SDs) from three tests were calculated.

| Compound | inhibition of mTNF-α ([1]; 0.1 μg/ml) [%] | inhibition of mTNF-α ([1]; 1.0 μg/ml) [%] | inhibition of mIL-17 [2] [%] | inhibition rate against mTNF-α ([1]; 1 μg/ml, J774A.1 cells pre-treated, then 100 ng/ml LPS, vs LPS-only group, Fig. 3C) [%] |
| --- | --- | --- | --- | --- |
| YPATMDDMA [P4S, 9-mer human tIK-derived peptide, fragment homolog of P4] | 45.5 | 50.7 | 43.8 |  |
| CSCC[C@H](NC(=O)[C@H](CC(=O)O)NC(=O)[C@H](CC(=O)O)NC(=O)[C@H](CCSC)NC(=O)[C@@H](NC(=O)[C@H](C)NC(=O)[C@@H]1CCCN1C(=O)[C@@H](N)Cc1ccc(O)cc1)[C@@H](C)O)C(=O)N[C@@H](C)C(=O)N[C@H](C(=O)N[C@@H](CC(=O)O)C(=O)N[C@@H](CO)C(=O)N[C@@H](CC(=O)O)C(=O)N[C@@H](CCC(=O)O)C(=O)N[C@@H](CCC(=O)O)C(=O)N[C@H](C(=O)N[C@@H](CC(=O)O)C(=O)N[C@@H](Cc1ccc(O)cc1)C(=O)O)C(C)C)C(C)C [P4] (H-YPATMDDMAVDSDEEVDY-OH; N-terminus and C-terminus assumed) |  |  | 42.4 | 50.2 |
